Source: ChEMBL document CHEMBL2176906, “Diterpenoids isolated from Sideritis species protect astrocytes against oxidative stress via Nrf2” (J Nat Prod, 2012)
Activity calls are given as the source filed them. The rule behind the calls is not given here.

Tested on: U373 MG
Experiment: Induction of CAT activity in human U373MG cells assessed per mg protein preincubated at 5 uM for 24 hrs before H2O2 challenge by fluorimetric method (reference value: 18.9 +/- 0.4 UI/mg protein)
Assay type: functional, U-373MG ATCC
Conditions: not given
In the case of `CC1(C)CCC[C@H]2C1=CC[C@H]1C[C@@](C)([C@@H](O)CO)C[C@@H](O)[C@@]12C` [LAGASCATRIOL], the Activity is reported as 24.2 IU.

Tested on: U-373MG ATCC
Experiment: Antioxidant activity in human U373MG cells assessed as reduction in H2O2-induced morphological changes preincubated at 10 uM for 24 hrs before H2O2 challenge by phase-contrast microscopy
Assay type: functional, cell-based
Conditions: not given
With `CC1(C)CCC[C@H]2C1=CC[C@H]1C[C@@](C)([C@@H](O)CO)C[C@@H](O)[C@@]12C` [LAGASCATRIOL] the Activity was “Active”.

Tested on: U373 MG
Experiment: Inhibition of H2O2-induced oxidative stress in human U373MG cells assessed as GSH level per mg protein at 10 uM by fluorimetric method (reference value: 17.1 +/- 1.7 nmol/mg protein)
Assay type: functional, U-373MG ATCC
Conditions: not given
`CC1(C)CCC[C@H]2C1=CC[C@H]1C[C@@](C)([C@@H](O)CO)C[C@@H](O)[C@@]12C` [LAGASCATRIOL] gave an Activity of 30 nmol.

Tested on: not listed separately
Experiment: Cytotoxicity against human U373MG cells assessed as LDH release at 1 to 10 uM after 24 hrs by LDH assay
Assay type: cell-based
Conditions: u-373mg atcc
With `CC1(C)CCC[C@H]2C1=CC[C@H]1C[C@@](C)([C@@H](O)CO)C[C@@H](O)[C@@]12C` [LAGASCATRIOL] the Activity was less than 10%.

Target: T1, Nuclear factor erythroid 2-related factor 2 (Homo sapiens) (UniProt Q16236)
T1 sequence (whole entry): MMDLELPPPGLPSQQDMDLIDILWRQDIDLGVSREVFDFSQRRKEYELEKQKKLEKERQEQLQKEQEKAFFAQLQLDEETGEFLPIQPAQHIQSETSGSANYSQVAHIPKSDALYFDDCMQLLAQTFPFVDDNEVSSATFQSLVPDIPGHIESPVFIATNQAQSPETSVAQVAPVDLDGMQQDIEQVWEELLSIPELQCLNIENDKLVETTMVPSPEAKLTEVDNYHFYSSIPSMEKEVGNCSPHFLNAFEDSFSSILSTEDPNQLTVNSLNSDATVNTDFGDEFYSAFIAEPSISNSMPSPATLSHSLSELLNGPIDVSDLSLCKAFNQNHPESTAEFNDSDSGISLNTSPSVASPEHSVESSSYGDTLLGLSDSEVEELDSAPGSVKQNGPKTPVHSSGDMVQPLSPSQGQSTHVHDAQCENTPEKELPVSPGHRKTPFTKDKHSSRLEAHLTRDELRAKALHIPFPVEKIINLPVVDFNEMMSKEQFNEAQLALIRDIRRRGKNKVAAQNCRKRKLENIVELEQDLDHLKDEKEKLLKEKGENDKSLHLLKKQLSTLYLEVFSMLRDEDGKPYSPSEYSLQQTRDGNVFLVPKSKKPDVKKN
Experiment: Induction of Nrf2-mediated GPx protein expression in H2O2-stimulated human U373MG cells preincubated at 10 uM for 24 hrs before H2O2 challenge by Western blot method
Assay type: cell-based
Conditions: U-373MG ATCC
For `CC1(C)CCC[C@H]2C1=CC[C@H]1C[C@@](C)([C@@H](O)CO)C[C@@H](O)[C@@]12C` [LAGASCATRIOL], the Activity was “Active”.

Tested on: U373 MG
Experiment: Induction of HO-1 activity in human U373MG cells assessed as bilirubin production per mg protein preincubated at 10 uM for 24 hrs before H2O2 challenge by fluorimetric method (reference value: 19.6 +/-3.5 pmol/hr/mg protein)
Assay type: functional, U-373MG ATCC
Conditions: not given
For `CC1(C)CCC[C@H]2C1=CC[C@H]1C[C@@](C)([C@@H](O)CO)C[C@@H](O)[C@@]12C` [LAGASCATRIOL], the Activity was 32.6 pmol/h.

Tested on: U373 MG
Experiment: Induction of selenium-dependent GPx activity in human U373MG cells assessed as […] per mg protein preincubated at 10 uM for 24 hrs before H2O2 challenge by fluorimetric method (reference value: 14.7 +/- 2.9 nmol/min/mg protein)
Assay type: functional, U-373MG ATCC
Conditions: not given
Work on `CC1(C)CCC[C@H]2C1=CC[C@H]1C[C@@](C)([C@@H](O)CO)C[C@@H](O)[C@@]12C` [LAGASCATRIOL] yielded an Activity of 27.1 nmol/min.

Tested on: U373 MG
Experiment: Induction of total GPx activity in human U373MG cells assessed as […] per mg protein preincubated at 5 uM for 24 hrs before H2O2 challenge by fluorimetric method (reference value: 58.5 +/- 5.1 nmol/min/mg protein)
Assay type: functional, U-373MG ATCC
Conditions: not given
With `CC1(C)CCC[C@H]2C1=CC[C@H]1C[C@@](C)([C@@H](O)CO)C[C@@H](O)[C@@]12C` [LAGASCATRIOL] the Activity was 76.9 nmol/min.

Tested on: U373 MG
Experiment: Inhibition of H2O2-induced oxidative stress in human U373MG cells assessed as GSH/GSSG ratio at 5 uM (reference value: 1.8 +/- 0.1 )
Assay type: functional, U-373MG ATCC
Conditions: not given
`CC1(C)CCC[C@H]2C1=CC[C@H]1C[C@@](C)([C@@H](O)CO)C[C@@H](O)[C@@]12C` [LAGASCATRIOL] showed a Ratio of 3.8.

Tested on: U373 MG
Experiment: Inhibition of H2O2-induced oxidative stress in human U373MG cells assessed as GSSG level per mg protein at 5 uM by fluorimetric method (reference value: 9.2 +/- 0.9 nmol/mg protein)
Assay type: functional, U-373MG ATCC
Conditions: not given
Work on `CC1(C)CCC[C@H]2C1=CC[C@H]1C[C@@](C)([C@@H](O)CO)C[C@@H](O)[C@@]12C` [LAGASCATRIOL] yielded an Activity of 7.1 nmol.

Target: T1, Nuclear factor erythroid 2-related factor 2 (Homo sapiens)
Experiment: Induction of Nrf2-mediated SOD protein expression in H2O2-stimulated human U373MG cells preincubated at 5 uM for 24 hrs before H2O2 challenge by Western blot method
Assay type: cell-based
Conditions: U-373MG ATCC
For `CC1(C)CCC[C@H]2C1=CC[C@H]1C[C@@](C)([C@@H](O)CO)C[C@@H](O)[C@@]12C` [LAGASCATRIOL], the Activity was “Active”.

Tested on: U373 MG
Experiment: Inhibition of H2O2-induced lipid peroxidation in human U373MG cells assessed as reduction in MDA levels per mg protein at 5 uM by HPLC analysis (reference value: 0.95 +/- 0.03 nmol/mg protein)
Assay type: functional, U-373MG ATCC
Conditions: not given
For `CC1(C)CCC[C@H]2C1=CC[C@H]1C[C@@](C)([C@@H](O)CO)C[C@@H](O)[C@@]12C` [LAGASCATRIOL], the Activity was 0.6 nmol.

Tested on: U373 MG
Experiment: Inhibition of AAPH-induced oxidative stress in human U373MG cells assessed as peroxy radical scavenging activity at 5 uM by ORAC assay
Assay type: functional, cell-based
Conditions: U-373MG ATCC
In the case of `CC1(C)CCC[C@H]2C1=CC[C@H]1C[C@@](C)([C@@H](O)CO)C[C@@H](O)[C@@]12C` [LAGASCATRIOL], the Activity is reported as “inactive”.

Tested on: U373 MG
Experiment: Induction of ROS production in human U373MG cells at 10 uM after 24 hrs by DCFH-DA assay
Assay type: functional, cell-based
Conditions: U-373MG ATCC
In the case of `CC1(C)CCC[C@H]2C1=CC[C@H]1C[C@@](C)([C@@H](O)CO)C[C@@H](O)[C@@]12C` [LAGASCATRIOL], the Activity is reported as “inactive”.

Target: T1, Nuclear factor erythroid 2-related factor 2 (Homo sapiens)
Experiment: Induction of Nrf2-mediated CAT protein expression in H2O2-stimulated human U373MG cells preincubated at 5 uM for 24 hrs before H2O2 challenge by Western blot method
Assay type: cell-based
Conditions: U-373MG ATCC
With `CC1(C)CCC[C@H]2C1=CC[C@H]1C[C@@](C)([C@@H](O)CO)C[C@@H](O)[C@@]12C` [LAGASCATRIOL] the Activity was “Active”.

Tested on: U373 MG
Experiment: Inhibition of H2O2-induced oxidative stress in human U373MG cells assessed as GSH/GSSG ratio at 10 uM (reference value: 1.8 +/- 0.1 )
Assay type: functional, U-373MG ATCC
Conditions: not given
`CC1(C)CCC[C@H]2C1=CC[C@H]1C[C@@](C)([C@@H](O)CO)C[C@@H](O)[C@@]12C` [LAGASCATRIOL] gave a Ratio of 4.2.

Tested on: U373 MG
Experiment: Induction of selenium-dependent GPx activity in human U373MG cells assessed as […] per mg protein preincubated at 5 uM for 24 hrs before H2O2 challenge by fluorimetric method (reference value: 14.7 +/- 2.9 nmol/min/mg protein)
Assay type: functional, U-373MG ATCC
Conditions: not given
With `CC1(C)CCC[C@H]2C1=CC[C@H]1C[C@@](C)([C@@H](O)CO)C[C@@H](O)[C@@]12C` [LAGASCATRIOL] the Activity was 22.8 nmol/min.

Tested on: U373 MG
Experiment: Inhibition of H2O2-induced oxidative stress in human U373MG cells assessed as GSH level per mg protein at 5 uM by fluorimetric method (reference value: 17.1 +/- 1.7 nmol/mg protein)
Assay type: functional, U-373MG ATCC
Conditions: not given
Work on `CC1(C)CCC[C@H]2C1=CC[C@H]1C[C@@](C)([C@@H](O)CO)C[C@@H](O)[C@@]12C` [LAGASCATRIOL] yielded an Activity of 27.6 nmol.

Tested on: U373 MG
Experiment: Induction of Glutathione reductase activity in human U373MG cells assessed as […] per mg protein preincubated at 5 uM for 24 hrs before H2O2 challenge by fluorimetric method (reference value: 9.3 +/- 2.2 nmol/min/mg protein)
Assay type: functional, U-373MG ATCC
Conditions: not given
Work on `CC1(C)CCC[C@H]2C1=CC[C@H]1C[C@@](C)([C@@H](O)CO)C[C@@H](O)[C@@]12C` [LAGASCATRIOL] yielded an Activity of 15.8 nmol/min.

Tested on: U373 MG
Experiment: Induction of CAT activity in human U373MG cells assessed per mg protein preincubated at 10 uM for 24 hrs before H2O2 challenge by fluorimetric method (reference value: 18.9 +/- 0.4 UI/mg protein)
Assay type: functional, U-373MG ATCC
Conditions: not given
Compound `CC1(C)CCC[C@H]2C1=CC[C@H]1C[C@@](C)([C@@H](O)CO)C[C@@H](O)[C@@]12C` [LAGASCATRIOL] has an Activity of 23.9 IU.

Tested on: U373 MG
Experiment: Induction of ROS production in human U373MG cells at 5 uM after 24 hrs by DCFH-DA assay
Assay type: functional, cell-based
Conditions: U-373MG ATCC
For `CC1(C)CCC[C@H]2C1=CC[C@H]1C[C@@](C)([C@@H](O)CO)C[C@@H](O)[C@@]12C` [LAGASCATRIOL], the Activity was “inactive”.

Tested on: U373 MG
Experiment: Induction of HO-1 activity in human U373MG cells assessed as bilirubin production per mg protein preincubated at 5 uM for 24 hrs before H2O2 challenge by fluorimetric method (reference value: 19.6 +/-3.5 pmol/hr/mg protein)
Assay type: functional, U-373MG ATCC
Conditions: not given
In the case of `CC1(C)CCC[C@H]2C1=CC[C@H]1C[C@@](C)([C@@H](O)CO)C[C@@H](O)[C@@]12C` [LAGASCATRIOL], the Activity is reported as 28.6 pmol/h.

Tested on: U373 MG
Experiment: Induction of total GPx activity in human U373MG cells assessed as […] per mg protein preincubated at 10 uM for 24 hrs before H2O2 challenge by fluorimetric method (reference value: 58.5 +/- 5.1 nmol/min/mg protein)
Assay type: functional, U-373MG ATCC
Conditions: not given
Work on `CC1(C)CCC[C@H]2C1=CC[C@H]1C[C@@](C)([C@@H](O)CO)C[C@@H](O)[C@@]12C` [LAGASCATRIOL] yielded an Activity of 85.2 nmol/min.

Tested on: U373 MG
Experiment: Inhibition of H2O2-induced lipid peroxidation in human U373MG cells assessed as reduction in MDA levels per mg protein at 10 uM by HPLC analysis (reference value: 0.95 +/- 0.03 nmol/mg protein)
Assay type: functional, U-373MG ATCC
Conditions: not given
`CC1(C)CCC[C@H]2C1=CC[C@H]1C[C@@](C)([C@@H](O)CO)C[C@@H](O)[C@@]12C` [LAGASCATRIOL] showed an Activity of 0.57 nmol.

Tested on: U373 MG
Experiment: Induction of Nrf2 nuclear protein expression in H2O2-stimulated human U373MG cells preincubated at 5 uM for 24 hrs before H2O2 challenge by Western blot method
Assay type: functional, cell-based
Conditions: U-373MG ATCC
With `CC1(C)CCC[C@H]2C1=CC[C@H]1C[C@@](C)([C@@H](O)CO)C[C@@H](O)[C@@]12C` [LAGASCATRIOL] the Activity was “Active”.

Target: T1, Nuclear factor erythroid 2-related factor 2 (Homo sapiens)
Experiment: Induction of Nrf2-mediated GPx protein expression in H2O2-stimulated human U373MG cells preincubated at 5 uM for 24 hrs before H2O2 challenge by Western blot method
Assay type: cell-based
Conditions: U-373MG ATCC
With `CC1(C)CCC[C@H]2C1=CC[C@H]1C[C@@](C)([C@@H](O)CO)C[C@@H](O)[C@@]12C` [LAGASCATRIOL] the Activity was “Active”.
